“Also recorded” adds a separate entry of the source.
System: homozygous mutant dopamine transporter knockout (KO) mice
Assay: Spontaneous activity in the open field, dopamine transporter KO mice
Format: in vivo
Description: Male and female wild-type and homozygous mutant dopamine transporter KO mice (n˜10 mice/genotype/agent; produced by in vivo homologous recombination and bred at Duke University Medical Center, Durham, N.C.) were tested for spontaneous activity in the open field following a single injection of the vehicle or compound. […] All drugs were given in a volume of 5 mL/kg. Animals were returned to the open field for an additional 90 min. Spontaneous activity was evaluated in an automated Omnitech Digiscan apparatus (Accuscan Instruments, Columbus, Ohio). Activity was summated at 5 min intervals over the 2 h period of testing. Horizontal activity or locomotion was measured in terms of the total distance covered in cm, vertical activity or rearing was expressed in terms of the total numbers of vertical beam breaks, and stereotypy was quantified in terms of repetitive breaks of a given beam or beams with intervals of less than 1 sec. For the analyses, 10 WT and 10 KO mice were run in each of the treatment groups with approximately equal numbers of males and females assigned to each group. Data were analyzed by the Statistical Package for Social Sciences programs (version 11.0 for Windows; SPSS Science, Chicago, Ill.). The results for each dependent variable were analyzed by repeated analyses of variance (RMANOVA) for within subjects effects (group differences over time) and between-subjects effects (tests of main effects and interactions). Bonferroni corrected pair-wise comparisons were used as the post-hoc tests. A p <0.05 was considered significant.

NC(=O)OC[C@H](N)Cc1ccccc1 [test compound, O-carbamoyl-(D)-phenylalaninol]
spontaneous activity (locomotor, rearing and stereotypical activities) (single SC injection, test compound 10, 30, 100 mg/kg, amphetamine 2 mg/kg, 90 min post-injection, relative to vehicle): selectively reduced activity of the KO mice in a dose-dependent manner; also recorded: reduced activities in a dose-dependent fashion | spontaneous activity compared with amphetamine (test compound 100 mg/kg SC versus amphetamine 2 mg/kg SC): suppressed activities more efficiently than amphetamine
